Reference: patent US8895571B2, “Isoindolinone and pyrrolopyridinone derivatives as Akt inhibitors” (Incyte Corporation, priority 2011, dated 2014)

Experiments:
[1] = biological target: T1, Full length Akt3 (Homo sapiens, UniProt Q9Y243); assay: In vitro Akt kinase enzymatic assay (HTRF), Akt3; type: biochemical; conditions: 0.6 nM Akt3, substrate solution with 5 mM ATP, 25° C. 1 hr
T1 construct: Full length Akt1 (cat #P2999), Akt2 (cat #PV3184), Akt3 (cat #PV3185); purchased PerkinElmer PV3185
Summary of the method: (§1)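 Full-length enzyme (0.4 nM Akt1 or 0.6 nM Akt2/Akt3 in the enzyme solution) was combined with a substrate solution of 0.1 μM ULight-Crosstide plus 5 mM ATP in pH 7.8 HEPES/MgCl2/DTT/Tween20 buffer and reacted 1 hr at 25° C. The EDTA stop contained Eu anti-phospho-Crosstide; IC50 was fitted from 11-point HTRF inhibition curves.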

[2] = system: LNCaP cells (human prostate tumor cell line); assay: Akt LNCaP proliferation assay (MTS); type: cell-based; conditions: 2% fetal bovine serum, 48 hours, class symbols
Summary of the method: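 Cells plated at 10,000/well in RPMI with 2% FBS overnight at 37° C., 5% CO2, then exposed to compound at 1000 nM to 0.5 nM (3-fold dilutions) for 48 hours. Viable cells measured by MTS colorimetric read-out after 2 hours; IC50 taken as concentration giving 50% inhibition of total proliferation.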

[3] = biological target: T2, Full length Akt1 (Homo sapiens, UniProt P31749); assay: In vitro Akt kinase enzymatic assay (HTRF), Akt1; type: biochemical; conditions: 0.4 nM Akt1, substrate solution with 5 mM ATP, 25° C. 1 hr
T2 construct: Full length Akt1 (cat #P2999); purchased PerkinElmer P2999
Summary of the method: as §1

[4] = biological target: T3, Full length PKA (Homo sapiens, UniProt P17612); assay: PKA in vitro enzymatic assay (HTRF); type: biochemical; conditions: 0.035 nM enzyme solution, substrate solution with 5 mM ATP, 25° C. 1 hr
T3 construct: Full length PKA (cat #P2912); purchased Invitrogen P2912
Summary of the method: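 IC50 came from curve fitting of percent inhibition across an 11-point, 3-fold compound series, with HTRF read after EDTA quench and Tb-labelled p-S133 antibody detection. Enzyme (0.035 nM solution) and substrate (0.1 μM fluorescein-CREBtide solution containing 5 mM ATP) reacted for 1 h at 25°C. The buffer was HEPES 50 mM pH 7.8 with 10 mM MgCl2, 5 mM DTT and 0.005% Tween20.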

[5] = biological target: T4, Full length Akt2 (Homo sapiens, UniProt P31751); assay: In vitro Akt kinase enzymatic assay (HTRF), Akt2; type: biochemical; conditions: 0.6 nM Akt2, substrate solution with 5 mM ATP, 25° C. 1 hr
T4 construct: Full length Akt1 (cat #P2999), Akt2 (cat #PV3184); purchased PerkinElmer PV3184
Summary of the method: as §1

T1 sequence (Q9Y243 whole entry): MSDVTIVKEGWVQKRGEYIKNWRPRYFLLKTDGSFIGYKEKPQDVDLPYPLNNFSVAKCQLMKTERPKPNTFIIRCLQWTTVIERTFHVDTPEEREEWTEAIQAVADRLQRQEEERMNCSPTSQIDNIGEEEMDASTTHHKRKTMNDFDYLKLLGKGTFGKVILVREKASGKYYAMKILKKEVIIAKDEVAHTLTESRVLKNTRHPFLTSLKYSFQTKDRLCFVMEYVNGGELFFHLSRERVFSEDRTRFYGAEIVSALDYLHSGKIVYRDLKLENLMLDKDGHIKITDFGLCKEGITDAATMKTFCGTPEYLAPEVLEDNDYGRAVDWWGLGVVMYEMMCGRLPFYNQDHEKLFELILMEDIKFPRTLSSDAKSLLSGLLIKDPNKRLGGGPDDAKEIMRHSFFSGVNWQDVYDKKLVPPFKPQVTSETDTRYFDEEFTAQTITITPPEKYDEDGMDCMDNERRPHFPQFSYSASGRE
T2 sequence (P31749 whole entry): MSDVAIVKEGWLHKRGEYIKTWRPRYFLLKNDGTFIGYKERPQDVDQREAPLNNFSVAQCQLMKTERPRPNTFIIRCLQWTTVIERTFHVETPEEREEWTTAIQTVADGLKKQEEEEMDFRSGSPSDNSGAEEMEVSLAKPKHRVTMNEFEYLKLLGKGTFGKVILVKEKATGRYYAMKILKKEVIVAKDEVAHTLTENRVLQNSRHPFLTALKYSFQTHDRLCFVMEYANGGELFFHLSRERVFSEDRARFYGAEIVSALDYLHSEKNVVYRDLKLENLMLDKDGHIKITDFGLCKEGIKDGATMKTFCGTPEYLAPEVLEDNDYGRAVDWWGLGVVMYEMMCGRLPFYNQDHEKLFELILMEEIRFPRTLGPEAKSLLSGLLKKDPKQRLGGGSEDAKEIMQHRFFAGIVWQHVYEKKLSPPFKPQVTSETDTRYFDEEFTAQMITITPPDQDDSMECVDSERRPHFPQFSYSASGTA
T4 sequence (P31751 whole entry): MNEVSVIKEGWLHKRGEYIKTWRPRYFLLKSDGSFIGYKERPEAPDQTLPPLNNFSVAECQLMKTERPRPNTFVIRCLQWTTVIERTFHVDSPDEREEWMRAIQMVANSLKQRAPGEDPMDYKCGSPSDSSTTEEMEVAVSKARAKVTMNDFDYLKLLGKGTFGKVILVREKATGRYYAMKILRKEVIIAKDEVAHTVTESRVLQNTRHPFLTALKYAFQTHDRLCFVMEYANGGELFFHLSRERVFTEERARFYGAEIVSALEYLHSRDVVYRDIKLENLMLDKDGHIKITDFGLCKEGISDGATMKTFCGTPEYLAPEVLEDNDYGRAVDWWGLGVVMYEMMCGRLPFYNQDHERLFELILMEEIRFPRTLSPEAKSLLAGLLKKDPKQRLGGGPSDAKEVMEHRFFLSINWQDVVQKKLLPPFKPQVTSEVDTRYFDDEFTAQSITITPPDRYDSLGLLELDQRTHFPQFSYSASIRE

SMILES	IC50 [1]	IC50 [2]	IC50 [3]	IC50 [4]	IC50 [5]
CCOCc1cnn(C)c1-c1ccc2c(c1)CN([C@H](CN)Cc1cc(F)cc(F)c1)C2=O [Example 44, 2-[(1S)-2-amino-1-(3,5-difluorobenzyl)ethyl]-5-(4-ethoxymethyl-1-methyl-1H-pyrazol-5-yl)isoindolin-1-one]	< 500 nM	< 500 nM	< 500 nM	500 to 5000 nM	< 500 nM
CC(C)OCc1cnn(C)c1-c1cc2c(cn1)C(=O)N([C@H](CN)Cc1cc(F)cc(F)c1)C2 [Example 106, 2-[(1S)-2-amino-1-(3,5-difluoro-benzyl)ethyl]-6-[4-(2-propoxy-methyl)-1-methyl-1H-pyrazol-5-yl]-1,2-dihydro-3H-pyrrolo[3,4-c]pyridin-3-one]	< 500 nM	< 500 nM	< 500 nM	> 5000 nM	< 500 nM
Cn1ncc(Cl)c1-c1cc2c(cn1)C(=O)N([C@H](CN)Cc1ccccc1)C2 [Example 100, 2-((1S)-2-amino-1-benzylethyl)-6-(4-chloro-1-methyl-1H-pyrazol-5-yl)-1,2-dihydro-3H-pyrrolo[3,4-c]pyridin-3-one]	< 500 nM	< 500 nM	< 500 nM	500 to 5000 nM	< 500 nM
